Where two headings read alike, the source gives them in different places. Values belong to the compound of their own block, whether it stands above or below them.
Legend:
[1] = tested on: stomach tissues; assay: Stomach RNA-sequencing, ENT-02 (MSI-1436) treatment and congruence with ENT-03 (Example 10); assay type: in vivo, mice; settings: stomach RNA-seq
Experimental: Samples of stomach tissues from the mice were analysed by RNA-sequencing on an Illumina platform.
To achieve these aims, data were subject to a quality control evaluation, differential expression and functional enrichment analyses, as well as a congruence analysis.
[…] At this threshold, differentially expressed genes were identified in all contrasts.
As mentioned previously, for statistical robustness, only those with an adjusted p-value <0.05 should be considered. […]
The amount of overlap is represented in FIGS. 28A-28D. For each comparison, the value in the plot represents the number of intersecting selected genes and the color represents the Jaccard index (the intersection over the union) for the two contrasts under consideration.
Scatter plots, upset plots, venn diagrams, hypergeometric tests and Spearman rank correlation tests were employed to assess the level of overlap as shown in FIGS. 15-27.

[2] = target: T1, PP2A Alpha/PP2R1A Complex (Homo sapiens, UniProt P67775); assay: Phosphatase panel, DiFMUP fluorescence assay; assay type: biochemical
T1 construct: purchased Recation Biology Inc

[3] = target: T2, PTPN1/PTP1B (Homo sapiens, UniProt P18031); assay: PTP1B inhibition, fluorescence time-course, 10-dose IC50 (Example 2); assay type: biochemical
T2 construct: The enzyme was the human truncated form (1-321), recombinantly produced in Escherichia coli; host or cells: Escherichia coli
T2 sequence (P18031 1-321): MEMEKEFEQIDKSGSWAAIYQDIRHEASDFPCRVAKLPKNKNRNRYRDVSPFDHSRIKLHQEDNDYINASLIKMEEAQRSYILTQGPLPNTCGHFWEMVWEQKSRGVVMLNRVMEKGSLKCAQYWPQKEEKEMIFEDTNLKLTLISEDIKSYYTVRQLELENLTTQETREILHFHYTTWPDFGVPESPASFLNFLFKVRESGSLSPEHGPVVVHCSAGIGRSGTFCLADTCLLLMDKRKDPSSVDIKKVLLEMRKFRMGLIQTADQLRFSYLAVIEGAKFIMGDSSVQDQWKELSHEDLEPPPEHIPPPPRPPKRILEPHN

[4] = target: Tyrosine-protein phosphatase non-receptor type 11 (Homo sapiens, UniProt Q06124); assay: Phosphatase panel, DiFMUP fluorescence assay; assay type: biochemical
[5] = target: T3, PTPN12/PTP-PEST (Homo sapiens, UniProt Q05209); assay: Phosphatase panel, DiFMUP fluorescence assay; assay type: biochemical
T3 construct: purchased Recation Biology Inc
T3 sequence (Q05209 1-780): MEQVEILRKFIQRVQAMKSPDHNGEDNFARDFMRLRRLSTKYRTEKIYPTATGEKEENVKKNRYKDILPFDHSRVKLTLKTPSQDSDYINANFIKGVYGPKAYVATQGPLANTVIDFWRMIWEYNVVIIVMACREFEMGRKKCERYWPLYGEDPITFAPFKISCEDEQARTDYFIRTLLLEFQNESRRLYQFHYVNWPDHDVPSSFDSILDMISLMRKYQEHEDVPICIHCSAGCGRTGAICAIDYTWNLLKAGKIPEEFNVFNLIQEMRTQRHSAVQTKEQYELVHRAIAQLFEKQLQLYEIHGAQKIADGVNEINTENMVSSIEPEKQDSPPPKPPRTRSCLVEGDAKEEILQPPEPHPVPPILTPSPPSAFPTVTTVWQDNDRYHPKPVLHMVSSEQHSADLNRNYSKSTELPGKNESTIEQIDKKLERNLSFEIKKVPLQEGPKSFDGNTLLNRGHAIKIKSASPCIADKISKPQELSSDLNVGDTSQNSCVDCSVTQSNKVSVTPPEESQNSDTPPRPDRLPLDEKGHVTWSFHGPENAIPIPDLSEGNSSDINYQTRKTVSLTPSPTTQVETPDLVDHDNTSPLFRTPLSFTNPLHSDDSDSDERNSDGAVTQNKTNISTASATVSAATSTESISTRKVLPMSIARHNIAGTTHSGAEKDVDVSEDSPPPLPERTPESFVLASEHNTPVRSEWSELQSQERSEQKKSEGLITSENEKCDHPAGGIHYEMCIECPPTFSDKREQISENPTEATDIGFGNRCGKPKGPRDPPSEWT

[6] = target: T4, PTPRC/CD45 (Homo sapiens, UniProt P08575); assay: Phosphatase panel, DiFMUP fluorescence assay; assay type: biochemical
T4 construct: purchased Recation Biology Inc
T4 sequence (P08575 26-1306): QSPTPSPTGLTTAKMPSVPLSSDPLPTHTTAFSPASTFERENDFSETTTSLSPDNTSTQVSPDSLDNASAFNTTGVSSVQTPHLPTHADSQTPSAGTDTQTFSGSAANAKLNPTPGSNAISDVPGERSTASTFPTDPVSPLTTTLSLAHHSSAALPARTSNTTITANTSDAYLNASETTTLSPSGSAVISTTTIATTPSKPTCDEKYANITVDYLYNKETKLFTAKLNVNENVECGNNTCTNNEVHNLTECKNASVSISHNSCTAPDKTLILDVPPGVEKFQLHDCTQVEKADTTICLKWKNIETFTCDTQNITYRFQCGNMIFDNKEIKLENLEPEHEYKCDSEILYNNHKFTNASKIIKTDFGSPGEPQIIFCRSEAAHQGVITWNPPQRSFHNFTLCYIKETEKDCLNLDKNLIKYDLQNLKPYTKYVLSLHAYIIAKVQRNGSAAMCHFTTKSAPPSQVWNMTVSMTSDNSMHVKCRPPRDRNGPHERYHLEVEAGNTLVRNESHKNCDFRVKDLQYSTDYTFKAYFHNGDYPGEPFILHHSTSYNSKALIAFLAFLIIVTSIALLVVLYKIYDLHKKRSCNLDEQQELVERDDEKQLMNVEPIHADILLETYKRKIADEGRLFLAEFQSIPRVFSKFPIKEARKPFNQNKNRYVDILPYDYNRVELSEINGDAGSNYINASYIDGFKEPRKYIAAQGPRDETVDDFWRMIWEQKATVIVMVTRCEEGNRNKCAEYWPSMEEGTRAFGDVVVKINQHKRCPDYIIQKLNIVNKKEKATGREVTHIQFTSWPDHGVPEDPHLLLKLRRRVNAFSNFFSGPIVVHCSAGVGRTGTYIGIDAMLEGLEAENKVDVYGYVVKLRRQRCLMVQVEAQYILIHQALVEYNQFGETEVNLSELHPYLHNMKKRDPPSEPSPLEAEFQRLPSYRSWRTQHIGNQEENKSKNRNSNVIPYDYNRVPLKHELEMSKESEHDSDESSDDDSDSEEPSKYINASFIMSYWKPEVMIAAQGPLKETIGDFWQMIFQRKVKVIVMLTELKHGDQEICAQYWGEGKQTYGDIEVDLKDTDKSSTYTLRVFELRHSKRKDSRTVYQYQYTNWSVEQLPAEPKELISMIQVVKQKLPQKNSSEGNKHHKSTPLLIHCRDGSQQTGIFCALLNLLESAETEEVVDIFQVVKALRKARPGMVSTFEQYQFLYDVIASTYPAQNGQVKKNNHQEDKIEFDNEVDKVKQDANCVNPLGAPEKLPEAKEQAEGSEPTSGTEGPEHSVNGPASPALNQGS

[7] = target: T5, PTPN2/TC-PTP (Homo sapiens, UniProt P17706); assay: Phosphatase panel, DiFMUP fluorescence assay; assay type: biochemical
T5 construct: purchased Recation Biology Inc
T5 sequence (P17706 1-415): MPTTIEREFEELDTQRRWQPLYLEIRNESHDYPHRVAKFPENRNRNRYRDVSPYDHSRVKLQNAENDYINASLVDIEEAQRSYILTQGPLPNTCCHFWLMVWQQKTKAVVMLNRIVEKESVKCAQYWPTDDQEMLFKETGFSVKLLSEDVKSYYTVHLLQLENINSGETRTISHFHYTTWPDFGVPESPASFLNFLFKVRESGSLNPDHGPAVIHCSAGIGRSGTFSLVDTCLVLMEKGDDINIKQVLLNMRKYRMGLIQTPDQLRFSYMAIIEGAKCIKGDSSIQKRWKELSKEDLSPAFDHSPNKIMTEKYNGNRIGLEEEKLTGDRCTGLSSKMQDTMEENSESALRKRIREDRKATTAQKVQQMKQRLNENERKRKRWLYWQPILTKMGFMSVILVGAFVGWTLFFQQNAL

[8] = target: T6, PTPN6/SHP1 (Homo sapiens, UniProt P29350); assay: Phosphatase panel, DiFMUP fluorescence assay; assay type: biochemical
T6 construct: purchased Recation Biology Inc
T6 sequence (P29350 whole entry): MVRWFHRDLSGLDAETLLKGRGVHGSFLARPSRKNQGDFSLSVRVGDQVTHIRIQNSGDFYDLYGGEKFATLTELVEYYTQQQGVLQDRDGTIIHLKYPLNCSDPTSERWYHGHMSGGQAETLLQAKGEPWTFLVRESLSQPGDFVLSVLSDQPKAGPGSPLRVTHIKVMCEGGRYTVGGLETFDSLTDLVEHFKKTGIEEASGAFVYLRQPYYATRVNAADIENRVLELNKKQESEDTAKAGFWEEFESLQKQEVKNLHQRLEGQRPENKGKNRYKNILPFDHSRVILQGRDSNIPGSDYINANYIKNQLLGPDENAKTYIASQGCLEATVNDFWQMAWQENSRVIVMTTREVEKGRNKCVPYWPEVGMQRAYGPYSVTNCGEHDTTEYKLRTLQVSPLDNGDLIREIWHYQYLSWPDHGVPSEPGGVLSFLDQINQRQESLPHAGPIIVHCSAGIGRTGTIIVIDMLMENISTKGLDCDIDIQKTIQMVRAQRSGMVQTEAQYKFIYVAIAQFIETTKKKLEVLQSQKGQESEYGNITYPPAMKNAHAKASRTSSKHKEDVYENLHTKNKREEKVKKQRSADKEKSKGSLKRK

T1 sequence (P67775 whole entry): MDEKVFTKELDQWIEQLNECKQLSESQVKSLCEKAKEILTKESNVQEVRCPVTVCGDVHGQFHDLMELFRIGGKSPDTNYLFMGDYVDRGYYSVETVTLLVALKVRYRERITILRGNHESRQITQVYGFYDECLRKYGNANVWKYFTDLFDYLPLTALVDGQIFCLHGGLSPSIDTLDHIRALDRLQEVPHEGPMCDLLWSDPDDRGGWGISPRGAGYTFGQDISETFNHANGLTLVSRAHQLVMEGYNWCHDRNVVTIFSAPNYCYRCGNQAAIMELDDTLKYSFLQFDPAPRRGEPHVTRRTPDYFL
T1 sequence (P30153 whole entry partner): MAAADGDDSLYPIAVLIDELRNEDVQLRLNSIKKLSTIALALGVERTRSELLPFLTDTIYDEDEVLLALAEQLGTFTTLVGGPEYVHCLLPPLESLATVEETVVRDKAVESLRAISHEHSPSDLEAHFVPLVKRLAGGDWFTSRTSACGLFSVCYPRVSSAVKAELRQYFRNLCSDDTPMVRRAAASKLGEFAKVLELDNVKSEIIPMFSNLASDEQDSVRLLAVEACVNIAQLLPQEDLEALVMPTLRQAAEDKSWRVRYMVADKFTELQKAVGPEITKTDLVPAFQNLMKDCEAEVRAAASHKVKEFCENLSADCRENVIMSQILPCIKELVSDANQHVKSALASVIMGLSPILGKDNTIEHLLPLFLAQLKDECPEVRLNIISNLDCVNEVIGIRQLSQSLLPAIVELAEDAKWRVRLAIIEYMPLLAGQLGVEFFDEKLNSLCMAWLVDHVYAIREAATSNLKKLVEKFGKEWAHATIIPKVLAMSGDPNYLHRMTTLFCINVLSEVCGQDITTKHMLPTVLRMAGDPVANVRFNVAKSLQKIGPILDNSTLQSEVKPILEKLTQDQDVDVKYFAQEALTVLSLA
Sequence of Tyrosine-protein phosphatase non-receptor type 11 (Q06124 247-517): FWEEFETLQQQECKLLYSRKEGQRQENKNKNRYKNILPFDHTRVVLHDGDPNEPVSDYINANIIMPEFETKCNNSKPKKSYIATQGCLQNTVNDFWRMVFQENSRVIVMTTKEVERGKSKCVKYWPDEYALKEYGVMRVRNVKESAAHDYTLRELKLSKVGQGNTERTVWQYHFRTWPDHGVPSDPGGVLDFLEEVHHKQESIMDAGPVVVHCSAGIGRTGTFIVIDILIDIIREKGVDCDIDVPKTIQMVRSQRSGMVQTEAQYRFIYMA

Compound: CC(C)[C@@H](CC[C@@H](C)[C@H]1CC[C@H]2[C@@H]3[C@H](O)C[C@H]4C[C@@H](NCCCNCCCCN)CC[C@]4(C)[C@H]3CC[C@]12C)OS(=O)(=O)O (single isomer, unassigned) [Ent-01, Squalamine]
number of significant features, down-regulated, fold change threshold 4x ([1]; old vs young mice, both treated, threshold 4x): 69 | number of significant features, down-regulated, fold change threshold 8x ([1]; old vs young mice, both treated, threshold 8x): 36 | number of significant features, down-regulated, fold change threshold 16x ([1]; old vs young mice, both treated, threshold 16x): 27 | number of significant features, down-regulated, fold change threshold 4x ([1]; treatment vs control, old mice, threshold 4x): 66 | number of significant features, down-regulated, fold change threshold 8x ([1]; treatment vs control, old mice, threshold 8x): 25 | number of significant features, down-regulated, fold change threshold 16x ([1]; treatment vs control, old mice, threshold 16x): 11 | number of significant features, down-regulated, fold change threshold 8x ([1]; treatment vs control, young mice, threshold 8x): 47 | number of significant features, down-regulated, fold change threshold 16x ([1]; treatment vs control, young mice, threshold 16x): 12 | number of significant features, up-regulated, fold change threshold 4x ([1]; treatment vs control, young mice, up-regulated, threshold 4x): 58 | number of significant features, up-regulated, fold change threshold 8x ([1]; treatment vs control, young mice, up-regulated, threshold 8x): 38 | number of significant features, up-regulated, fold change threshold 16x ([1]; treatment vs control, young mice, up-regulated, threshold 16x): 28

Compound: CC1(C(=O)O)C2CCC(O2)C1(C)C(=O)O (centres unmarked) [Canthardic Acid, Cantharidic acid, reference compound]
IC50 ([2]; Compound IC50 (M) PP2A Alpha/PP2R1A Complex, Table 5B): 1.7e-08 M | IC50 ([2]; inhibitory activity PP2A Alpha/PP2R1A Complex, Table 18A): 2.78e-08 M | IC50 ([2]; inhibitory activity PP2A Alpha/PP2R1A Complex, Table 19A): 3.01e-08 M

Slope (signal/min) ([3]; Conc 1.00E−04 M): −161 signal/min | Slope (signal/min) ([3]; Conc 1.11E−05 M): −319 signal/min | Slope (signal/min) ([3]; Conc 1.23E−06 M): 34760 signal/min | Slope (signal/min) ([3]; Conc 1.37E−07 M): 40150 signal/min | Slope (signal/min) ([3]; Conc 1.52E−08 M): 43819 signal/min | Slope (signal/min) ([3]; Conc 3.33E−05 M): −362 signal/min | Slope (signal/min) ([3]; Conc 3.70E−06 M): 8429 signal/min | Slope (signal/min) ([3]; Conc 4.12E−07 M): 41755 signal/min | Slope (signal/min) ([3]; Conc 4.57E−08 M): 43697 signal/min | Slope (signal/min) ([3]; Conc 5.08E−09 M): 44655 signal/min | HILLSLOPE ([3]; Table 5A): −2.50
Compound: [2H]C([2H])([2H])C([2H])(C(CC[C@@H](C)[C@H]1CCC2C3C(CC[C@@]21C)[C@@]1(C)CC[C@H](NCCCNCCCCNCCCN)C[C@@H]1C[C@H]3O)OS(=O)(=O)O)C([2H])([2H])[2H] (some centres unmarked) [Compound D7-1436]

Compound: CCc1oc2cc(S(=O)(=O)Nc3ccc(S(=O)(=O)Nc4nccs4)cc3)ccc2c1C(=O)c1cc(Br)c(O)c(Br)c1 [PTP1B Inhibitor, 3-(3,5-Dibromo-4-hydroxy-benzoyl)-2-ethyl-benzofuran-6-sulfonicacid-(4-(thiazol-2-ylsulfamyl)-phenyl)-amide, reference compound]
IC50 [4]: 1.82 µM | IC50 ([5]; Table 5C, read-out: Compound IC50 (M) PTPN12/PTP-PEST): 2.99e-05 M | IC50 ([5]; Table 18B, read-out: inhibitory activity PTPN12/PTP-PEST): 2.16e-06 M | IC50 ([5]; Table 19B, read-out: inhibitory activity PTPN12/PTP-PEST): 1.21e-06 M | IC50 ([6]; Table 5B, read-out: Compound IC50 (M) PTPRC/CD45): 5.7e-05 M | IC50 ([6]; Table 18A, read-out: inhibitory activity PTPRC/CD45): 2.8e-05 M | IC50 ([6]; Table 19A, read-out: inhibitory activity PTPRC/CD45): 2.66e-05 M | IC50 ([7]; Table 5C, read-out: Compound IC50 (M) PTPN2/TC-PTP): 1.34e-05 M | IC50 ([7]; Table 18B, read-out: inhibitory activity PTPN2/TC-PTP): 7.53e-06 M | IC50 ([7]; Table 19B, read-out: inhibitory activity PTPN2/TC-PTP): 5.86e-06 M | IC50 ([8]; Table 5B, read-out: Compound IC50 (M) PTPN6/SHP1): 5.75e-06 M | IC50 ([8]; Table 18A, read-out: inhibitory activity PTPN6/SHP1): 3.47e-06 M | IC50 ([8]; Table 19A, read-out: inhibitory activity PTPN6/SHP1): 3.67e-06 M

Reference: patent publication US20250228873A1, “C25 R AND S ISOMERS OF AMINOSTEROLS AND METHODS OF MAKING AND USING THE SAME” (Enterin, Inc., priority 2022, published 2025)
